Source: US20260363251A1 (priority 2022, published 2026)
Read-outs that look alike come from different tables or passages of the source. Numbered stars: 1 amine (or outer) side, 2 acyl side, 3 side chain; on linkers, the order of the positions; unused ones are H or OH. Bridge positions count the residues as written; N and C are the ends. Square brackets hold non-standard residues; d marks the D form. Peptide text beside a SMILES is read from it. * marks the point of attachment. Tridecanoyl(12-Me) = CC(C)CCCCCCCCCCC(=O)*; X1 = NC(=O)CC(O)C(N[*:1])C(=O)[*:2]; NMeF = CN[CH](Cc1ccccc1)C(=O)O; NMeN = CN[CH](CC(N)=O)C(=O)O; X2 = CCC(C)CCCCCCCCCCC(=O)*

How the values were obtained:
Aphanomyces cochlioides = assay: Seed treatment, soilborne Aphanomyces cochlioides in sugar beet in the greenhouse (Example 4.3); type: in vivo, Aphanomyces cochlioides strain K-9164; conditions: Tachigaren WS070; damping off vs infected control
[1] = Solubility in water or DMSO
Zymoseptoria tritici [2] = assay: Preventive and curative treatment of Zymoseptoria tritici on wheat (Table 8); type: in vivo; conditions: 200 L/ha, 17DAI
Puccinia recondita [3] = assay: Preventive and curative treatment of Puccinia recondita on wheat (Table 8); type: in vivo; conditions: 200 L/ha
Puccinia striiformis = assay: Treatment of wheat infected with yellow rust Puccinia striiformis (Table 9); type: in vivo; conditions: 200 L/ha
[4] = system: Blumeria graminis f.sp. tritici; assay: Treatment of powdery mildew on wheat (Table 12); type: in vivo; conditions: 1 d preventive, 200 L/ha, 27 g/ha, 7DAI
Alternaria solani = assay: Treatment of early blight on tomato (Table 13); type: in vivo; conditions: 1 d preventive, 400 L/ha, 4DAI
[5] = system: Colletotrichum lagenarium; assay: Treatment of anthracnose on cucumber (Table 13); type: in vivo; conditions: 1 d preventive, 400 L/ha, 5DAI
Mycosphaerella arachidis = assay: Treatment of early leaf spots on groundnut (Table 13); type: in vivo; conditions: 1 d preventive, 400 L/ha, 11DAI
Ramularia collo-cygni = assay: Treatment of ramularia leaf spot on barley (Table 14); type: in vivo; conditions: 1 d preventive, 200 L/ha, 20DAI
Parastagonospora nodorum = assay: Treatment of glume blotch on wheat (Table 14); type: in vivo; conditions: 1 d preventive, 200 L/ha, 7DAI
Rhynchosporium secalis = assay: Treatment of scald on barley (Table 14); type: in vivo; conditions: 1 d preventive, 200 L/ha, 15DAI
Zymoseptoria tritici [6] = assay: Treatment of Zymoseptoria tritici on wheat beyond the treated area (Table 16); type: in vivo; conditions: 188 ppm, 17DAI
Puccinia recondita [7] = assay: Treatment of Puccinia recondita on wheat beyond the treated area (Table 16); type: in vivo; conditions: 188 ppm, 11DAI
Pyricularia oryzae = type: in vivo; conditions: 1 d preventive, 400 L/ha
Oculimacula yallundae = assay: Treatment of eyespot on wheat (Table 15); type: in vivo; conditions: 1 d preventive, 200 L/ha, 450 g/ha
Rhizoctonia solani = assay: Treatment of sheath blight on rice (Table 11); conditions: 1 d preventive, 400 L/ha
Fusarium culmorum = assay: Seed treatment, soilborne Fusarium culmorum in wheat under semi-field conditions (Example 4.1B); type: in vivo; conditions: Celest FS025, 5 g ai per 100 kg seeds; plant emergence vs infected control
[8] = dmso, organic solvent or mixture

Cc1cc(O)no1 [Hymexazol]
activity (%) (Aphanomyces cochlioides): 74%

CC(=O)NC1C(OCC(OC2OC(CO)C(O)C(O)C2O)C2OC(OC3C(O)C(CO)OC(OC4(CO)OC(C(O)CO)C(O)C4OC4OC(CO)C(O)C(O)C4O)C3O)C(O)C(O)C2OC2OC(C(O)CO)C(O)C(O)C2OC2OCC(OC(N)=O)C(O)C2O)OC(CO)C(O)C1O (stereo not drawn) [compound I]
solubility [1, 8]: > 9770 µg/mL

CCC(C)CCCCCCCCCCC(=O)NC1C(=O)NC(CC(=O)O)C(=O)NC(C(O)CC(N)=O)C(=O)NC(CO)C(=O)N(C)C(CC(N)=O)C(=O)N(C)C(Cc2ccccc2)C(=O)NC(CCC(N)=O)C(=O)NC(CCC(=O)O)C(=O)OC1C (stereo not drawn) [Formula II (b) Lipopeptide 1218] (X2-TD[X1]S[NMeN][NMeF]QE; ester 1-C; configuration not given here)
solubility [1, 8]: > 10000 µg/mL

Cn1cc(C(=O)Nc2cccc3c2C2CCC3C2=C(Cl)Cl)c(C(F)F)n1 (stereo not drawn) [SOLATENOL]
disease symptom reduction (%) vs. Untreated (Zymoseptoria tritici [2]; 1 d preventive, 1 g/ha): 0%
disease symptom reduction (%) vs. Untreated (Zymoseptoria tritici [2]; 1 d preventive, 3 g/ha): 0%
disease symptom reduction (%) vs. Untreated (Zymoseptoria tritici [2]; 1 d preventive, 9 g/ha): 70%
disease symptom reduction (%) vs. Untreated (Zymoseptoria tritici [2]; 1 d preventive, 27 g/ha): 97%
disease symptom reduction (%) vs. Untreated (Zymoseptoria tritici [2]; 3 d curative, 1 g/ha): 4%
disease symptom reduction (%) vs. Untreated (Zymoseptoria tritici [2]; 3 d curative, 3 g/ha): 0%
disease symptom reduction (%) vs. Untreated (Zymoseptoria tritici [2]; 3 d curative, 9 g/ha): 61%
disease symptom reduction (%) vs. Untreated (Zymoseptoria tritici [2]; 3 d curative, 27 g/ha): 82%
disease symptom reduction (%) vs. Untreated (Puccinia recondita [3]; 1 d preventive, 1 g/ha, 10DAI): 49%
disease symptom reduction (%) vs. Untreated (Puccinia recondita [3]; 1 d preventive, 3 g/ha, 10DAI): 88%
disease symptom reduction (%) vs. Untreated (Puccinia recondita [3]; 1 d preventive, 9 g/ha, 10DAI): 96%
disease symptom reduction (%) vs. Untreated (Puccinia recondita [3]; 1 d preventive, 27 g/ha, 10DAI): 99%
disease symptom reduction (%) vs. Untreated (Puccinia recondita [3]; 3 d curative, 1 g/ha, 11DAI): 47%
disease symptom reduction (%) vs. Untreated (Puccinia recondita [3]; 3 d curative, 3 g/ha, 11DAI): 58%
disease symptom reduction (%) vs. Untreated (Puccinia recondita [3]; 3 d curative, 9 g/ha, 11DAI): 84%
disease symptom reduction (%) vs. Untreated (Puccinia recondita [3]; 3 d curative, 27 g/ha, 11DAI): 92%
disease symptom reduction (%) vs. Untreated (Puccinia striiformis; 1 d preventive, 0.9 g/ha, 22DAI): 0%
disease symptom reduction (%) vs. Untreated (Puccinia striiformis; 1 d preventive, 2.8 g/ha, 22DAI): 76%
disease symptom reduction (%) vs. Untreated (Puccinia striiformis; 1 d preventive, 8 g/ha, 22DAI): 90%
disease symptom reduction (%) vs. Untreated (Puccinia striiformis; 1 d preventive, 25 g/ha, 22DAI): 100%
disease symptom reduction (%) vs. Untreated (Puccinia striiformis; 1 d preventive, 75 g/ha, 22DAI): 100%
disease symptom reduction (%) vs. Untreated (Puccinia striiformis; 4 d curative, 0.9 g/ha, 21DAI): 84%
disease symptom reduction (%) vs. Untreated (Puccinia striiformis; 4 d curative, 2.8 g/ha, 21DAI): 93%
disease symptom reduction (%) vs. Untreated (Puccinia striiformis; 4 d curative, 8 g/ha, 21DAI): 95%
disease symptom reduction (%) vs. Untreated (Puccinia striiformis; 4 d curative, 25 g/ha, 21DAI): 99%
disease symptom reduction (%) vs. Untreated (Puccinia striiformis; 4 d curative, 75 g/ha, 21DAI): 100%
disease symptom reduction (%) vs. Untreated [4]: 54%
disease symptom reduction (%) vs. Untreated (Alternaria solani; 1 g/ha): 40%
disease symptom reduction (%) vs. Untreated (Alternaria solani; 2 g/ha): 53%
disease symptom reduction (%) vs. Untreated (Alternaria solani; 6 g/ha): 80%
disease symptom reduction (%) vs. Untreated (Alternaria solani; 20 g/ha): 90%
disease symptom reduction (%) vs. Untreated (Alternaria solani; 60 g/ha): 100%
disease symptom reduction (%) vs. Untreated ([5]; 1 g/ha): 53%
disease symptom reduction (%) vs. Untreated ([5]; 2 g/ha): 67%
disease symptom reduction (%) vs. Untreated ([5]; 6 g/ha): 60%
disease symptom reduction (%) vs. Untreated ([5]; 20 g/ha): 90%
disease symptom reduction (%) vs. Untreated ([5]; 60 g/ha): 100%
disease symptom reduction (%) vs. Untreated (Mycosphaerella arachidis; 1 g/ha): 56%
disease symptom reduction (%) vs. Untreated (Mycosphaerella arachidis; 2 g/ha): 67%
disease symptom reduction (%) vs. Untreated (Mycosphaerella arachidis; 6 g/ha): 89%
disease symptom reduction (%) vs. Untreated (Mycosphaerella arachidis; 20 g/ha): 100%
disease symptom reduction (%) vs. Untreated (Mycosphaerella arachidis; 60 g/ha): 98%
disease symptom reduction (%) vs. Untreated (Ramularia collo-cygni; 4 g/ha): 6%
disease symptom reduction (%) vs. Untreated (Ramularia collo-cygni; 12 g/ha): 32%
disease symptom reduction (%) vs. Untreated (Ramularia collo-cygni; 40 g/ha): 80%
disease symptom reduction (%) vs. Untreated (Ramularia collo-cygni; 120 g/ha): 97%
disease symptom reduction (%) vs. Untreated (Parastagonospora nodorum; 4 g/ha): 16%
disease symptom reduction (%) vs. Untreated (Parastagonospora nodorum; 12 g/ha): 44%
disease symptom reduction (%) vs. Untreated (Parastagonospora nodorum; 40 g/ha): 81%
disease symptom reduction (%) vs. Untreated (Parastagonospora nodorum; 120 g/ha): 85%
disease symptom reduction (%) vs. Untreated (Rhynchosporium secalis; 4 g/ha): 31%
disease symptom reduction (%) vs. Untreated (Rhynchosporium secalis; 12 g/ha): 60%
disease symptom reduction (%) vs. Untreated (Rhynchosporium secalis; 40 g/ha): 94%
disease symptom reduction (%) vs. Untreated (Rhynchosporium secalis; 120 g/ha): 100%
disease cover on leaf (%) (Zymoseptoria tritici [6]; leaf 1, not treated): 100%
disease symptom reduction (%) vs. Untreated (Zymoseptoria tritici [6]; leaf 1, not treated): 0%
disease cover on leaf (%) (Zymoseptoria tritici [6]; leaf 2 - base, not treated): 89%
disease symptom reduction (%) vs. Untreated (Zymoseptoria tritici [6]; leaf 2 - base, not treated): 8%
disease cover on leaf (%) (Zymoseptoria tritici [6]; leaf 2 - middle, treated): 0%
disease symptom reduction (%) vs. Untreated (Zymoseptoria tritici [6]; leaf 2 - middle, treated): 100%
disease cover on leaf (%) (Zymoseptoria tritici [6]; leaf 2 - tip, not treated): 0%
disease symptom reduction (%) vs. Untreated (Zymoseptoria tritici [6]; leaf 2 - tip, not treated): 100%
disease cover on leaf (%) (Zymoseptoria tritici [6]; leaf 3, not treated): 42%
disease symptom reduction (%) vs. Untreated (Zymoseptoria tritici [6]; leaf 3, not treated): 15%
disease cover on leaf (%) (Puccinia recondita [7]; leaf 1, not treated): 80%
disease symptom reduction (%) vs. Untreated (Puccinia recondita [7]; leaf 1, not treated): 11%
disease cover on leaf (%) (Puccinia recondita [7]; leaf 2 - base, not treated): 81%
disease symptom reduction (%) vs. Untreated (Puccinia recondita [7]; leaf 2 - base, not treated): 0%
disease cover on leaf (%) (Puccinia recondita [7]; leaf 2 - middle, treated): 0%
disease symptom reduction (%) vs. Untreated (Puccinia recondita [7]; leaf 2 - middle, treated): 100%
disease cover on leaf (%) (Puccinia recondita [7]; leaf 2 - tip, not treated): 2%
disease symptom reduction (%) vs. Untreated (Puccinia recondita [7]; leaf 2 - tip, not treated): 98%
disease cover on leaf (%) (Puccinia recondita [7]; leaf 3, not treated): 31%
disease symptom reduction (%) vs. Untreated (Puccinia recondita [7]; leaf 3, not treated): 16%

CCCC1COC(Cn2cncn2)(c2ccc(Cl)cc2Cl)O1 (stereo not drawn) [Propiconazole]
disease symptom reduction (%) vs. Untreated (Pyricularia oryzae; 5 g/ha): 17%
disease symptom reduction (%) vs. Untreated (Pyricularia oryzae; 14 g/ha): 38%
disease symptom reduction (%) vs. Untreated (Pyricularia oryzae; 42 g/ha): 79%
disease symptom reduction (%) vs. Untreated (Pyricularia oryzae; 125 g/ha): 92%

Cc1cc(C2CC2)nc(Nc2ccccc2)n1 [Cyprodinil]
disease symptom reduction (%) vs. Untreated (Oculimacula yallundae): 56%

CO/C=C(/C(=O)OC)c1ccccc1Oc1cc(Oc2ccccc2C#N)ncn1 [Azoxystrobin]
disease symptom reduction (%) vs. Untreated (Pyricularia oryzae; 3 g/ha): 92%
disease symptom reduction (%) vs. Untreated (Pyricularia oryzae; 9 g/ha): 85%
disease symptom reduction (%) vs. Untreated (Pyricularia oryzae; 28 g/ha): 96%
disease symptom reduction (%) vs. Untreated (Pyricularia oryzae; 83 g/ha): 92%
disease symptom reduction (%) vs. Untreated (Rhizoctonia solani; 3 g/ha): 62%
disease symptom reduction (%) vs. Untreated (Rhizoctonia solani; 9 g/ha): 86%
disease symptom reduction (%) vs. Untreated (Rhizoctonia solani; 28 g/ha): 81%
disease symptom reduction (%) vs. Untreated (Rhizoctonia solani; 83 g/ha): 86%

CC(C)CCCCCCCCCCC(=O)NC1C(=O)NC(CC(=O)O)C(=O)NC(C(O)CC(N)=O)C(=O)NC(CO)C(=O)N(C)C(CC(N)=O)C(=O)N(C)C(Cc2ccccc2)C(=O)NC(CCC(N)=O)C(=O)NC(CCC(=O)O)C(=O)OC1C (stereo not drawn) [Formula II (a) Lipopeptide 1204] ({Tridecanoyl(12-Me)}-TD[X1]S[NMeN][NMeF]QE; ester 1-C; configuration not given here)
solubility [1, 8]: > 10000 µg/mL
solubility ([1]; water, pH 2.08, water): 21.4 µg/mL

N#Cc1c[nH]cc1-c1cccc2c1OC(F)(F)O2 [Fludioxonil]
activity (%) (Fusarium culmorum): 93%
